Assays:
[1] = tested on: ARPE-19 cells; experiment: UOS-induced apoptosis in ARPE-19 cells (Hoechst-positive pyknotic cells); type: cell-based, human; details: for UOS-induced apoptotic cell death, concentration-dependent: 50-500 nM (FIG. 10G); for concentration of highest inhibition of UOS-induced apoptosis / concentration of lowest inhibition of UOS-induced apoptosis: tested 50-500 nM; for UOS-induced apoptosis: 200 nM (FIG. 10C); for protection against UOS: free fatty acids (FIGS. 7A and 7B)
Description: ARPE19 cells at 75-80% confluence (72 h growth in DMEM/F12+10% FBS) in 6-well plates were serum-starved for 8 h before exposure. The serum-starved cells were treated with TNF-α (Sigma-Aldrich, St. Louis, Mo.) (10 ng/ml) and H2O2 (600 μM) to induce oxidative stress and challenged with increasing concentrations (50-500 nM) of VLC-PUFA (C32:6n3 and C34:6n3) simultaneously with oxidative stress for 16 h (apoptosis) and 6 h (Western-blot) before detection of apoptosis and harvesting for protein analysis. In some experiments, DHA at a concentration of 100 nM and 15-LOX-1 inhibitor PD146176 at a concentration of 1 μM was added to treat the RPE cells under stress. Cell extracts were made and protein concentrations adjusted by Bio-Rad (Hercules, Calif.) protein reagent and used for Western blot analysis.
(§1) To assess cell death, hRPE and ARPE-19 cells were fixed with methanol for 15 mins, washed with 1× PBS then loaded with 2 μM Hoechst dissolved in a Locke's solution (Promega) and incubated for another 15 mins before imaging. Cells were then viewed by using a Zeiss LSM 510 confocal microscope under UV fluorescence. Images were recorded and cell apoptosis was assessed by using an automated unbiased method.

[2] = tested on: primary human RPE cells; experiment: UOS-induced cell death in primary human RPE cells (Hoechst staining); type: cell-based; details: for UOS-induced primary human RPE cell death: UOS for 16 h + 32:6n3 or 34:6n3 (FIG. 8C); for cell death (apoptosis): UOS with H2O2 (800 μM), 16 h, VLC-PUFAs 3 μM each, NPD1 200 nM, UOS alone 50% cell death
Description: Exposure of RPE cells to UOS and VLC-PUFA: For cell viability assay experiments hRPE cells were treated concomitantly with NPD1 (200 nM), 32-6, 34-6 (3 μM each) fatty acids or both 32-6 and 34-6 simultaneously. The hRPE medium was supplemented with 3 μM of 32-6 and 34-6 for the entire duration of the experiment. 15 lox-1 inhibitor (10 μM) was added to the cells 1 hour prior the OS induction and kept throughout the experiment. Cells were fixed with 4% PFA and stained with Hoescht.
as §1
To test the efficacy of 32:6n3 and 34:6n3 VLC-PUFAs to modulate human RPE cell homeostasis and survival rates, human RPE cells undergoing UOS were incubated with both VLC-PUFAs (3 μM each) and NPD1 (200 nM) 16 h. The addition of H2O2 (800 μM) induced apoptosis (50% cell death).
hRPE cells, formerly serum deprived for 12 h, were incubated with the 15 lipoxygenase 1 (15-LOX-1) inhibitor (PD146176) (10 μM for 1 h), then bathed with 600 μM H2O2/TNF-α in conjunction with a mixture of 32:6n3 and 34:6n3 (3 μM each) for 16 h. The 15-LOX-1 inhibitor sensitizes cells; therefore, a lower concentration of H2O2 than in the cytoprotection experiment was used.

Compound	UOS-induced apoptotic cell death, concentration-dependent [1]	concentration of highest inhibition of UOS-induced apoptosis [1] [nM]	concentration of lowest inhibition of UOS-induced apoptosis [1] [nM]	UOS-induced apoptosis [1]	protection against UOS [1]	UOS-induced primary human RPE cell death [2]	cell death (apoptosis) [2] [%]
CC/C=C\C[C@H](O)\C=C/C=C/C=C/[C@H](O)C/C=C\C/C=C\CCCCCCCCCCCCCCC(=O)OC [ELV-N34-Me, methyl (16Z,19Z,22R,23E,25E,27Z,29S,31Z)-22,29-dihydroxytetratriaconta-16,19,23,25,27,31-hexaenoate]	attenuated	500	50	–	–	–	–
CC/C=C\C[C@H](O)\C=C/C=C/C=C/[C@H](O)C/C=C\C/C=C\CCCCCCCCCCCCC(=O)[O-].[Na+] [ELV-N32-Na, sodium (14Z,17Z,20R,21E,23E,25Z,27S,29Z)-20,27-dihydroxydotriaconta-14,17,21,23,25,29-hexaenoate]	attenuated	500	50	attenuation of apoptosis	–	–	–
CC/C=C\C[C@H](O)\C=C/C=C/C=C/[C@H](O)C/C=C\C/C=C\CCCCCCCCCCCCCCC(=O)[O-].[Na+] [ELV-N34-Na, sodium (16Z,19Z,22R,23E,25E,27Z,29S,31Z)-22,29-dihydroxytetratriaconta-16,19,23,25,27,31-hexaenoate]	–	–	–	attenuation of apoptosis	–	–	–
CC/C=C\C/C=C\C/C=C\C/C=C\C/C=C\C/C=C\CCCCCCCCCCCCC(=O)O [32:6n3, (14Z,17Z,20Z,23Z,26Z,29Z)-dotriaconta-14,17,20,23,26,29-hexaenoic acid]	–	–	–	–	elicit protection	cell death was prevented	4
CC/C=C\C/C=C\C/C=C\C/C=C\C/C=C\C/C=C\CCCCCCCCCCCCCCC(=O)O [34:6n3, (16Z,19Z,22Z,25Z,28Z,31Z)-tetratriaconta-16,19,22,25,28,31-hexaenoic acid]	–	–	–	–	elicit protection	cell death was prevented	18
